Assay: Stability of PU-48 in rat plasma QC samples (HPLC)
Type: in vitro ADME
Details: for Stability: Measured Concentration: n=3
Description: HPLC Analysis and Method Validation
The concentration of PU -48 prototype in biological sample (feces and plasma protein binding analysis) was determined using a validated high -performance liquid chromatographic (HPLC) method in our preliminary experiment. Briefly, the analysis was performed using a HPLC consistent of model 510 pump with a model 2487 ultraviolet detector, a model Rheodyne 7725 injector, and a column oven. The analytical conditions were as follows: the detection wavelength: 293 nm; analytical column: a reversed-phase Acclaim C18 (4.6 mm × 250 mm, 5.0 µm, Dionex); column temperature: 25 C; mobile phase: acetonitrile: distilled water at a ratio of 60: 40 ( v/v); flow rate: 1 mL/min. In this study, the methods for the feces samples, were evaluated for specificity, linearity, precision, accuracy and […]
The intra- and inter-day precision and accuracy were determined by analyzing five replicates of QC samples (low, medium and high concentrations of 0.005, 0.08 and 1.6 µg/mL) at each QC level on the same day and on five consecutive days. The precision was expressed as the relative standard deviation (RSD) between the measured values and the targeted values. The pass c riterion was set at <15%. The accuracy was expressed as relative error (RE) between the measured values and the targeted values, which was set at < ± 15% (for the low concentration, the acceptance criterion was <20%). The stability of PU -48 in rat plasma w as determined by analyzing QC samples stored in different conditions, including room temperature and light irradiation for 24 h, post -preparation (the extracted samples were stored at 4°C for 96 h), three cycles of freeze and thaw (freezing at -20°C for 24 h and thawing at room temperature) and long-term stored at −20°C for 3 months. All of the QC samples for stability assessment were analyzed in triplicate.

[1] = extracted rat plasma samples, post−preparative (at 4 °C for 96 h), actual 0.005 µg/mL
[2] = extracted rat plasma samples, post−preparative (at 4 °C for 96 h), actual 0.08 µg/mL
[3] = extracted rat plasma samples, post−preparative (at 4 °C for 96 h), actual 1.6 µg/mL
[4] = rat plasma, freeze−thawing three cycles (at −20 °C), actual 0.005 µg/mL
[5] = rat plasma, freeze−thawing three cycles (at −20 °C), actual 0.08 µg/mL
[6] = rat plasma, freeze−thawing three cycles (at −20 °C), actual 1.6 µg/mL
[7] = rat plasma, freezing storage (at −20 °C for 3 months), actual 0.005 µg/mL
[8] = rat plasma, freezing storage (at −20 °C for 3 months), actual 0.08 µg/mL
[9] = rat plasma, light and room temperature for 24 h, actual 0.005 µg/mL
[10] = rat plasma, light and room temperature for 24 h, actual 0.08 µg/mL
[11] = rat plasma, light and room temperature for 24 h, actual 1.6 µg/mL

Stability: Accuracy (RE) [1]: −8.43%
Stability: Measured Concentration [1]: 0.0046 ± 0.0006 µg/mL
Stability: Accuracy (RE) [2]: −10.23%
Stability: Measured Concentration [2]: 0.0718 ± 0.0019 µg/mL
Stability: Accuracy (RE) [3]: −3.08%
Stability: Measured Concentration [3]: 1.5507 ± 0.0904 µg/mL
Stability: Accuracy (RE) [4]: −7.33%
Stability: Measured Concentration [4]: 0.0046 ± 0.0004 µg/mL
Stability: Accuracy (RE) [5]: −3.43%
Stability: Measured Concentration [5]: 0.0773 ± 0.0055 µg/mL
Stability: Accuracy (RE) [6]: −8.49%
Stability: Measured Concentration [6]: 1.4641 ± 0.0840 µg/mL
Stability: Accuracy (RE) [7]: −9.37%
Stability: Measured Concentration [7]: 0.0045 ± 0.0002 µg/mL
Stability: Accuracy (RE) [8]: −6.48%
Stability: Measured Concentration [8]: 0.0748 ± 0.0058 µg/mL
Stability: Accuracy (RE) (rat plasma, freezing storage (at −20 °C for 3 months), actual 1.6 µg/mL): −10.15%
Stability: Accuracy (RE) [9]: −9.278%
Stability: Measured Concentration [9]: 0.0045 ± 0.0003 µg/mL
Stability: Accuracy (RE) [10]: 9.07%
Stability: Measured Concentration [10]: 0.0873 ± 0.0011 µg/mL
Stability: Accuracy (RE) [11]: −10.63%
Stability: Measured Concentration [11]: 1.4299 ± 0.0296 µg/mL
SMILES: COC(=O)c1sc2nc3ccc(OC)cc3cc2c1N [PU-48, Methyl 3-amino-6-methoxythieno [2,3-b] quinoline-2-carboxylate]
